Laboratory results taken from paper PMC8691691 (ACS Chemical Neuroscience, 2021).
Where a chain is given by its changes, count along the chain named. Read-outs that look alike come from different tables or passages of the source.

Tests used:
[1] = cited from earlier work
GlyT2 = target: T1, GlyT2 (Rattus norvegicus, UniProt P58295); experiment: [3H]glycine transport by recombinant GlyT2 expressed in COS7 cells; assay type: cell-based; conditions: for Vmax of glycine transport: n = 3; for reversibility of inhibition upon cell washing: washed, transport at 10 μM glycine; for decay of transport inhibition after 1–4 washes: 1 μM inhibitor 10 min, washes with HBS containing NaCl or choline chloride
T1 construct: expressed in transfected cells; host or cells: COS7
T1 sequence (P58295 1-799): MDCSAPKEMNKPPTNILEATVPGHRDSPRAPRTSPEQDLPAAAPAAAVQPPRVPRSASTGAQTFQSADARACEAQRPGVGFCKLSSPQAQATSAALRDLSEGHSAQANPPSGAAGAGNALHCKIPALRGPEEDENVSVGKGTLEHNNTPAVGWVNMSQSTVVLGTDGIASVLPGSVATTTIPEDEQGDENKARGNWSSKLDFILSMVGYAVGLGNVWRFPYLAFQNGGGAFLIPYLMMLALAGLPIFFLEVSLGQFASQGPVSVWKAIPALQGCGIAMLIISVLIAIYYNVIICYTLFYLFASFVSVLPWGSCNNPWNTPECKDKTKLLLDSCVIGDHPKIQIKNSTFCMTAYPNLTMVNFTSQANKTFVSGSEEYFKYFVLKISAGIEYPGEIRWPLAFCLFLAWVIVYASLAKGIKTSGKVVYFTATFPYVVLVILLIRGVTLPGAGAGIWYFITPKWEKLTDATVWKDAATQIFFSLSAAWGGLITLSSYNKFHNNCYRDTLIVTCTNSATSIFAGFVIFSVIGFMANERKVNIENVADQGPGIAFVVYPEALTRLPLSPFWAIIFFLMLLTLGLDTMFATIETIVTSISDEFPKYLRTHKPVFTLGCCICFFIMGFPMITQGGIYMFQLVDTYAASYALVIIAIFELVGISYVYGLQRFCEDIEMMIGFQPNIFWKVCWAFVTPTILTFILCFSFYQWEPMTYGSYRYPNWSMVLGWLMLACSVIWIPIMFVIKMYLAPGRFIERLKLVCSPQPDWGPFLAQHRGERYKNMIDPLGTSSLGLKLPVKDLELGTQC
Method: Substitution mutants were generated with the QuikChange II Site-Directed Mutagenesis kit (Agilent Technologies, Santa Clara, CA, USA), using rGlyT2 or rGlyT1 subcloned in pCDNA3.[47] The complete coding region of all of the constructs was sequenced to verify that only the desired mutation had been introduced. […] COS7 cells were grown and transfected using Turbofect Transfection Reagent (Thermo Fisher Scientific, Waltham, MA, USA), following the manufacturer’s protocol (2 μL reagent/μg of DNA). Cells were incubated for 48 h at 37 °C until used.
At the end of the desired time (usually 10 min), reactions were washed and terminated by aspiration. […] A nonlinear curve fitting method was used to obtain IC50 values using Graphpad Prism software, version 6.0, Graphpad, San Diego, CA, USA.

GlyT2 A223C mutant = target: T2, GlyT2 A223C mutant (Rattus norvegicus, UniProt P58295, A223C); experiment: MTSEA-biotin labeling of A223C mutant in NaCl or choline chloride, COS7 cells; assay type: cell-based; conditions: 1 μM inhibitor; HBS containing NaCl or choline chloride
T2 construct: expressed in transfected cells; host or cells: COS7
T2 sequence (P58295 1-799 A223C): T1 sequence (P58295 1-799) with A223C
Text: Several pieces of evidence were obtained to confirm this prediction (Figure 7). […] A second piece of evidence came from experiments using the […] mutant of GlyT2 that contains an exogenous cysteine in EL1, a region sensitive to the different conformations of the transporter induced by the substrates during the transport cycle.[44] […] Then, the cells were washed and subjected to MTSEA-biotin staining as described above.

[2] = 1 nM inhibitor, glycine 0.5–500 μM
[3] = 10 nM inhibitor, glycine 0.5–500 μM
[4] = 50 nM inhibitor, glycine 0.5–500 μM
[5] = 100 nM inhibitor, glycine 0.5–500 μM
[6] = IC50, inhibition of glycine transport, COS7 cells, 10 μM glycine

IC50 (GlyT2; 25 mM NaCl, choline chloride substitution, read-out: IC50, inhibition of [3H]-glycine transport, low sodium) [nM]	IC50 (GlyT2; 150 mM NaCl, read-out: IC50, inhibition of [3H]-glycine transport, regular sodium) [nM]	selectivity for GlyT2 over GlyT1 (GlyT2; COS7 cells)	difference of inhibitor EC50 at every glycine concentration from its value at 10 μM glycine (GlyT2; glycine 0.5–500 μM)	Compound	fraction of the drug that crosses the blood–brain barrier [1] [%]	Vmax of glycine transport (GlyT2; [2]) [nmol Gly/mg prot/6 min]	Vmax of glycine transport (GlyT2; [3]) [nmol Gly/mg prot/6 min]	reversibility of inhibition upon cell washing (GlyT2; 50 nM inhibitor)	Vmax of glycine transport (GlyT2; [4]) [nmol Gly/mg prot/6 min]	Vmax of glycine transport (GlyT2; [5]) [nmol Gly/mg prot/6 min]	decay of transport inhibition after 1–4 washes (GlyT2)	IC50 (GlyT2; [6]) [nM]	inhibition type (Eadie–Hofstee plots) (GlyT2; glycine 0.5–500 μM)	MTSEA-biotin labeling of A223C, sodium dependence (GlyT2 A223C mutant)	blood–brain barrier crossing (in words) [1]	IC50 (GlyT2; IC50 (Table S1), wtGlyT2, 10 μM glycine as in Figs. 4 and 5) [nM]	IC50 (GlyT2; IC50, inhibition of [3H]-glycine transport, low sodium, 25 mM NaCl, choline chloride substitution) [nM]	IC50 (GlyT2; IC50, inhibition of [3H]-glycine transport, regular sodium, 150 mM NaCl) [nM]	selectivity for GlyT2 (in words) (GlyT2; compared with ALX1393, Figure 2B)
122 ± 20.9	21.8 ± 4.1	about 2 orders of magnitude	no more than 30%	N[C@@H](COC(c1cccc(F)c1)c1ccccc1OCc1ccccc1)C(=O)O (stereo partly shown) [ALX1393]	5	22.3	18.8	eliminated by cell washing	13.2	30.4	presence of sodium in the washing buffer reduced the washing power	31 ± 2.7	noncompetitive behavior	abolished the label in NaCl but left it intact in choline chloride	–	–	–	–	–
–	–	–	–	COc1cc(C(=O)NCC2(N(C)C)CCCC2)cc(OC)c1OCc1ccccc1 [ORG25543, N-[[1-(dimethylamino)cyclopentyl]methyl]-3,5-dimethoxy-4-(phenylmethoxy)benzamide]	–	24.6	23.8	irreversible inhibition	18.6	11.5	no inhibition decay was observed	17.7 ± 4.6	mainly noncompetitive behavior	protects the labeling independently of the cation present in the buffer	can cross the blood–brain barrier	18 ± 5	51.2 ± 12.3	23.8 ± 7.1	higher selectivity for GlyT2
